Results on six compounds are retold here after patent publication US9617267B2, “Compounds and methods for kinase modulation, and indications therefor” (Plexxikon Inc., priority 2009, dated 2017).

Data set [1] concerns the target CYP3A4(BFC) (Homo sapiens (Human), UniProt P08684). Kind of data set: CYP enzyme inhibition, fluorescent substrate BFC. The procedure: (§1) CYP (Cytochrome P450) enzymes are the major drug metabolizing enzymes present in the liver. The inhibition of CYP enzyme activity (IC50) for each of CYP1A2, CYP2C19, CYP2C9, CYP2D6, CYP3A4(BFC) and CYP3A4(BQ) is determined for compounds, where inhibition of metabolism of a known substrate leads to a decrease in the fluorescence of the metabolized product. The fluorescence of the product is monitored as a function of compound concentration.
(§2) Compounds are dissolved in dimethyl sulfoxide to a concentration of 100 mM. These are diluted 1 μL into 82 μL of acetonitrile. […] These are then serially diluted 1:1 (160 μL to 160 μL co-factor mix) for a total of 10 points. A 10 μL aliquot of this final mixture is dispensed into 384 well assay plates and incubated for 10 minutes at 37° C. […] Assay plates are incubated at 37° C. […] The signal versus compound concentration is used to determine the IC50. The enzymes and substrates for this assay are obtained from BD Biosciences.

The target in data set [2] is c-Raf-1 (Homo sapiens, UniProt P04049). Kind of data set: c-Raf-1 kinase activity biochemical assay (AlphaScreen, biotin-MEK1 phosphorylation). The method, then: (§3) Compounds to be tested are diluted in dimethyl sulfoxide to a concentration of 0.1 mM. These are serially diluted 15 μL into 30 μL of dimethyl sulfoxide seven times in 96 well plates for a total of 8 dilution points, and for each dilution point 1 μL is added to a well of an assay plate. […] The reaction is started with addition of 10 μL of 200 μM ATP (i.e. final 100 μM ATP). After incubation of the kinase reaction for 45 minutes at room temperature, 5 μL/well of Stop Solution is added (25 mM Hepes pH 7.5, 100 mM EDTA, 0.01% BSA with donor beads (Streptavidin coated beads, Perkin Elmer), acceptor beads (Protein A coated, Perkin Elmer), and anti phosphor MEK1/2 antibody (CellSignal), each at final concentration 10 μg/mL). The plates are incubated for 3 hours at room temperature and read on Envision reader (Perkin Elmer). […] The signal vs. compound concentration is used to determine the IC50.
Chain of c-Raf-1 (P04049 whole entry, looked up): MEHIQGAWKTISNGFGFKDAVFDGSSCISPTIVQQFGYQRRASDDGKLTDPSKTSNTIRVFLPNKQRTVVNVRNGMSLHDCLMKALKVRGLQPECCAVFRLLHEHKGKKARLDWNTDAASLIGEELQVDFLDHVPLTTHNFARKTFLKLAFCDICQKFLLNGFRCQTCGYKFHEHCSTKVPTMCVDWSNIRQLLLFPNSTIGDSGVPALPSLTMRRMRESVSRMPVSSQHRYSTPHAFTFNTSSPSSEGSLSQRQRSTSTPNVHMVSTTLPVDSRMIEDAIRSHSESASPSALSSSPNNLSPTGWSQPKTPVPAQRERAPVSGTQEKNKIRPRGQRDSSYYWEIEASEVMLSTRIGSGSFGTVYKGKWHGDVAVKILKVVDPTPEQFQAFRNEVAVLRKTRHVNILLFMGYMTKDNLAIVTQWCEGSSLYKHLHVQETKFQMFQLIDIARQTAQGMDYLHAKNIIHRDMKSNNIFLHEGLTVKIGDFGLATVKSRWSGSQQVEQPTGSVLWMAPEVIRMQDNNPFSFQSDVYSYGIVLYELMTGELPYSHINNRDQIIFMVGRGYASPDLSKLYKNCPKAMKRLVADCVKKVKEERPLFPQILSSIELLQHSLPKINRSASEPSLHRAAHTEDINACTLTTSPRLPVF
(Bead proximity is the source of the signal in Alpha formats.)

For data set [3], the target named is CYP1A2 (Homo sapiens (Human), UniProt P05177). Kind of data set: CYP enzyme inhibition, fluorescent substrate (CEC). Conditions: human, 15 min. The method, then:
as §1
(§4) Compounds are dissolved in dimethyl sulfoxide to a concentration of 100 mM. These are diluted 1 μL into 82 μL of acetonitrile. An 11 μL aliquot of this solution is then added to 204 μL of cofactor mix (1.3% NADPH Regeneration system Solution A, 1.04% NADPH Regeneration system Solution B from BD Biosciences, 5% acetonitrile and 0.05% dimethyl sulfoxide). These are then serially diluted 1:1 (160 μL to 160 μL co-factor mix) for a total of 10 points. A 10 μL aliquot of this final mixture is dispensed into 384 well assay plates and incubated for 10 minutes at 37° C. Enzyme and substrate mix (10 μL; 0.5 pmol CYP1A2/5 μM CEC; 1.0 pmol CYP2C9/75 μM MFC; 0.5 pmol CYP2C19/25 μM CEC; 1.5 pmol CYP2D6/1.5 μM AMMC; 1.0 pmol CYP3A4/50 μM BFC; or 1.0 pmol CYP3A4/40 μM BQ) is added to these assay plates. Assay plates are incubated at 37° C. (CYP1A2-15 min; CYP2C9-45 min; CYP2C19, 2D6 and 3A4-30 min) and read in a Tecan Safire 2 plate reader (CYP1A2, 2C19 and 3A4 409 ex/460 em; CYP2C9 and 2D6 409 ex/530 em). The signal versus compound concentration is used to determine the IC50. The enzymes and substrates for this assay are obtained from BD Biosciences.

Data set [4] addresses B-Raf V600E (Homo sapiens (Human), UniProt P15056, V600E). Kind of data set: B-Raf V600E kinase activity biochemical assay (AlphaScreen, biotin-MEK1 phosphorylation). Conditions: for IC50: B-Raf V600E; for Biochemical activity ratio V600E/C: ratio of IC50 B-Raf V600E / c-Raf-1. The method, then:
as §3

Data set [5] has as its target CYP2C9 (Homo sapiens (Human), UniProt P11712). Kind of data set: CYP enzyme inhibition, fluorescent substrate (MFC). The procedure:
as §1, §2

Data set [6] addresses CYP2C19 (Homo sapiens (Human), UniProt P33261). Kind of data set: CYP enzyme inhibition, fluorescent substrate (CEC). The method, then: as §1, §2
In data set [7] the target is CYP2D6 (Homo sapiens (Human), UniProt P10635). The experiment in a line: CYP enzyme inhibition, fluorescent substrate (AMMC). The class given is in vitro ADME. Conditions: read-out: Cyp IC50 2D6. The procedure:
as §1, §4

The subject of data set [8] is B-Raf. The experiment in a line: B-Raf kinase activity biochemical assay (AlphaScreen, biotin-MEK1 phosphorylation). Conditions: for Biochemical activity ratio B/V600E: ratio of IC50 B-Raf / B-Raf V600E; for Biochemical activity ratio B/C: ratio of IC50 B-Raf / c-Raf-1. The method, then:
as §3

Data set [9] concerns the target B-Raf (Homo sapiens (Human), UniProt P15056). The description is as above. Conditions: B-Raf. The method, then:
as §3

The nature of data set [10]: Relative solubility by turbidity threshold concentration in aqueous buffers (pH 1.5, 4.5, 6.8, 7.4). In kind it is physicochemical. Conditions: for turbidity threshold (L, M, H) 1.4: pH 1.4 [sic] (method: SGF pH 1.5); for turbidity threshold (L, M, H) 4.5: pH 4.5 (SIF); for turbidity threshold (L, M, H) 6.8: pH 6.8 (SIF); for turbidity threshold (L, M, H) 7.4: pH 7.4 (HEPES). The procedure: As an indication of relative solubility, the turbidity of compounds in aqueous solutions is assessed. To assess possible compound properties in different physiological compartments, such as stomach, intestine, and blood, a series of aqueous buffers with varying pH is used. Thus each compound is diluted into four different physiologically relevant buffers and solution turbidity is measured by spectrophotometry.
Compounds are dissolved at a concentration of 25 mM in dimethyl sulfoxide, then serially diluted 1:1 into a 96 well plate, diluting 10 times in pure dimethyl sulfoxide, with the final well of each row a dimethyl sulfoxide blank. In an assay plate, 99 μL of appropriate buffer is added to each well, and 1 μL of each sample dilution is added to the buffer, achieving a range of final total concentrations in aqueous solutions having different pH. The buffers used are Simulated Gastric Fluid (SGF-pH 1.5) 0.5M NaCl, pH 1.5; Simulated Intestinal fluid (SIF-pH 4.5 and pH 6.8) 0.05M NaH2PO4, pH 4.5 and 6.8; and Hepes Buffer (HEPES-pH 7.4) 10 mM HEPES, 150 mM NaCl, pH 7.4. Control compounds pyrene, estriol and propranolol HCl are also assessed. Plates are spun and then mixed for 1 minute, and the absorbance is read using a Tecan Safire II to read wavelengths in the visible range (490, 535, and 650 nm) at four locations per well, reflecting the degree of turbidity present. The average optical density for each wavelength in each well is graphed vs. compound concentration, and the concentration at which the curve crosses a threshold O.D. of 0.01 for each wavelength is reported as the endpoint turbidity assay result. The average of the three wavelengths is used to compare turbidity of compounds. Compounds are considered to have low solubility if the threshold concentration is <31.3 μM, moderate solubility if the threshold concentration is 31.3 μM to 250 μM, and high solubility if the threshold concentration is >250 μm.
The following table indicates the relative solubility (L=low, M=moderate, H=high) based on turbidity threshold concentration at each pH for exemplary compounds according to the invention as indicated: […]

Broadly, the pIC50 is the IC50 on a negative log10 scale, so that one unit is a factor of ten. In general, IC50 refers to the midpoint of a concentration-inhibition curve. High values mean weaker potency in that assay, low ones greater potency in that assay.

Structures are written as SMILES. pIC50: −log10 of the molar value. Like-named read-outs stand apart in the source and are kept apart here. Where only a bound is given, the exact number is not on record here.

Chain of B-Raf V600E (P15056 whole entry V600E): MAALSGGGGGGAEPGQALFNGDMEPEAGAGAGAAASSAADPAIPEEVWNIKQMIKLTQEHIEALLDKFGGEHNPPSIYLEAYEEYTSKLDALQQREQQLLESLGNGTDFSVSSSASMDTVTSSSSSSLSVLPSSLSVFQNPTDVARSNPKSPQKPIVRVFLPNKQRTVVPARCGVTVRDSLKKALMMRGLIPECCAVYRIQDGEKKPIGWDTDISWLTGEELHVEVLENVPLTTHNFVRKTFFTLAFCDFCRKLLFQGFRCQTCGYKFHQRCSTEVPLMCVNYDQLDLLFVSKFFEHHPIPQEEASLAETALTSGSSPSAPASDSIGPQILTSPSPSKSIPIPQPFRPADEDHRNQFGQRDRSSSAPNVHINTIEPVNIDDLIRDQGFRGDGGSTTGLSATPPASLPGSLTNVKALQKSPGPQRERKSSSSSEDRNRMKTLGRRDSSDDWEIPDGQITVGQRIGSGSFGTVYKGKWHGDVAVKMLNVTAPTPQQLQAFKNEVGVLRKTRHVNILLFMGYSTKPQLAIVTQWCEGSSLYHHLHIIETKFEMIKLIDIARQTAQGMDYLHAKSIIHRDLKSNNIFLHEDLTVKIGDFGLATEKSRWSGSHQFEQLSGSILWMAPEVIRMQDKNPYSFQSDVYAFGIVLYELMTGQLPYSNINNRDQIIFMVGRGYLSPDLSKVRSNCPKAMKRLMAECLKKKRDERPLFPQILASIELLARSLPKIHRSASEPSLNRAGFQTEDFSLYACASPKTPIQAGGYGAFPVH
Chain of B-Raf (Homo sapiens (Human), UniProt P15056) (P15056 whole entry): as the sequence (P15056 whole entry V600E) above, with E600V counted along it
Chain of CYP2C9 (P11712 whole entry): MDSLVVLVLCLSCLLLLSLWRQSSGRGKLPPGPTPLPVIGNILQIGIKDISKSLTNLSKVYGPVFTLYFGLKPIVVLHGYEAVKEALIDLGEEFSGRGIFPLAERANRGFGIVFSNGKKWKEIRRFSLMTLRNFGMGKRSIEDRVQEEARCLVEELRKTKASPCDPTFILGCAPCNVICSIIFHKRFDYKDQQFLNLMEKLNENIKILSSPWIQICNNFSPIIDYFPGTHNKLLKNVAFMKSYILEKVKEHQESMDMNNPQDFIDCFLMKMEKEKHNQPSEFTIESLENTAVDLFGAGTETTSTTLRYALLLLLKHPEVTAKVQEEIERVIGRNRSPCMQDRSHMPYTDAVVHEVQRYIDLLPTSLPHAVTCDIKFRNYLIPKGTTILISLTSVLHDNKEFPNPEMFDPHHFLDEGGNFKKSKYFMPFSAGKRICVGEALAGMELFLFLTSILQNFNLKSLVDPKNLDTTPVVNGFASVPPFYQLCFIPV
Chain of CYP2C19 (P33261 whole entry): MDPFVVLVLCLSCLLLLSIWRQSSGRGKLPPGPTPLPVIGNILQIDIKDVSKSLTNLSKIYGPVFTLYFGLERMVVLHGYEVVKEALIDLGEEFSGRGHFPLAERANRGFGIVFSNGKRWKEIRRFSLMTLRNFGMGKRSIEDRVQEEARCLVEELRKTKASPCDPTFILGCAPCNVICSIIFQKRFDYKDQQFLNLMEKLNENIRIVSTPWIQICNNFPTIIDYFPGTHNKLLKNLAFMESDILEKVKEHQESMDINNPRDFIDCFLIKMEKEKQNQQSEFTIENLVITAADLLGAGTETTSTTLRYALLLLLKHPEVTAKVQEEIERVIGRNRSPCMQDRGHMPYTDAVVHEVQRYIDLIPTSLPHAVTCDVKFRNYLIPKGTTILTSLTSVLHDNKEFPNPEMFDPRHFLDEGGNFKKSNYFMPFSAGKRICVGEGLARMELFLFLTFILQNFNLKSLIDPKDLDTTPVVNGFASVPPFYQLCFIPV
Chain of CYP1A2 (P05177 whole entry): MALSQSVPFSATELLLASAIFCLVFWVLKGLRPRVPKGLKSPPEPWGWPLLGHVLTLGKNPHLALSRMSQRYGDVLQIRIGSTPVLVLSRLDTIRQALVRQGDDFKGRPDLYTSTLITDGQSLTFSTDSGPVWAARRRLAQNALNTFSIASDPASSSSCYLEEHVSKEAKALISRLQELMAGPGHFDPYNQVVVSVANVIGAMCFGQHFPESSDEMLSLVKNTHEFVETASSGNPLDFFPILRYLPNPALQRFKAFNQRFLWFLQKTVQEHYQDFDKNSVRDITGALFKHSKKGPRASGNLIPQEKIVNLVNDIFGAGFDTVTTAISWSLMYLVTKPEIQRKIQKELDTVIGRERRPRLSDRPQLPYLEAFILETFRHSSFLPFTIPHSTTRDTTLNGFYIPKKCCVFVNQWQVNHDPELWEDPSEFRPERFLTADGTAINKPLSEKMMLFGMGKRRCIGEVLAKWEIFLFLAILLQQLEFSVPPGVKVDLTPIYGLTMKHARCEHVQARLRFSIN
Chain of CYP2D6 (P10635 whole entry): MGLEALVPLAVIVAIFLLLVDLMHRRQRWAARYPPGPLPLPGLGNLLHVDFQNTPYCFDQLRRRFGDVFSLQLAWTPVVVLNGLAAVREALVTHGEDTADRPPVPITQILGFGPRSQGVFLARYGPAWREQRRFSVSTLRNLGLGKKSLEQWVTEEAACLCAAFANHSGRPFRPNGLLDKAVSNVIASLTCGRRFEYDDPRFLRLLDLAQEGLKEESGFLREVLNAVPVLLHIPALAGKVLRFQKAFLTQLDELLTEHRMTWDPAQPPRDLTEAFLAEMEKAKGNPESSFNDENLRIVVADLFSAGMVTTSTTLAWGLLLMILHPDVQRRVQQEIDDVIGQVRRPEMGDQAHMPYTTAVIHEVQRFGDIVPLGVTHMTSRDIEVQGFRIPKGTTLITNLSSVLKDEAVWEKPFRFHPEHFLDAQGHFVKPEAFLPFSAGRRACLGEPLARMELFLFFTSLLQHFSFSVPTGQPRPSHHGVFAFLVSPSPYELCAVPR
Chain of CYP3A4(BFC) (P08684 whole entry): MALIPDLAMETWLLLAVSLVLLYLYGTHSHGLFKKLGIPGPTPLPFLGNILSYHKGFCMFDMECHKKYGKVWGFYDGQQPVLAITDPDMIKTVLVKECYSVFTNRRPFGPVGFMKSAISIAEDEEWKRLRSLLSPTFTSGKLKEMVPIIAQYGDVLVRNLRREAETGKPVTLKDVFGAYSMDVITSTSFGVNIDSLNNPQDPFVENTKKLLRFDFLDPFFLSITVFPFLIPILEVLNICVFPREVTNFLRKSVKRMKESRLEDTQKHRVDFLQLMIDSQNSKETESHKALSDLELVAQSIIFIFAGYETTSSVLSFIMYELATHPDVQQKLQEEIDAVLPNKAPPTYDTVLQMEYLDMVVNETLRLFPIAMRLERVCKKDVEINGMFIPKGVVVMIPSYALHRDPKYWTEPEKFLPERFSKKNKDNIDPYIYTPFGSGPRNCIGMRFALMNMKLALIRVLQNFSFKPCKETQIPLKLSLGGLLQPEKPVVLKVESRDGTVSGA

Take `CC(C)Cc1ncnc2[nH]cc(C(=O)c3c(F)ccc(NS(=O)(=O)c4ccc(C(F)(F)F)cc4)c3F)c12` [P-1015, N-[2,4-Difluoro-3-(4-isobutyl-7H-pyrrolo[2,3-d]pyrimidine-5-carbonyl)-phenyl]-4-trifluoromethyl-benzenesulfonamide]: the negative-log IC50 (pIC50) in [1] is 5.00 to 5.30; in data set [3], under 5.00; in [5] (read-out: Cyp IC50 2C9, CYP2C9, substrate MFC), under 5.00; in data set [6] (read-out: Cyp IC50 2C19, CYP2C19, substrate CEC) it was under 5.00; in data set [7], under 5.00. Besides, the IC50 is under 0.1 µM in data set [2], over 0.1 µM in [4] and over 0.1 µM in [9]. In data set [4], the “Biochemical activity ratio V600E/C” value was over 10. Besides, the “Biochemical activity ratio B/V600E” value in data set [8] is given as 0.1-10. Further, in data set [8], the “Biochemical activity ratio B/C” value is over 10.
As to `COc1ccc(S(=O)(=O)Nc2ccc(F)c(C(=O)c3c[nH]c4ncnc(C)c34)c2F)cc1F` [P-1036, N-[2,4-Difluoro-3-(4-methyl-7H-pyrrolo[2,3-d]pyrimidine-5-carbonyl)-phenyl]-3-fluoro-4-methoxy-benzenesulfonamide], the IC50 in data set [2] is under 0.1 µM. For the same compound, in data set [4], the IC50 is under 0.1 µM and the “Biochemical activity ratio V600E/C” value is recorded as 0.1-10. In addition, in [8], the “Biochemical activity ratio B/V600E” value was over 10 and the “Biochemical activity ratio B/C” value is reported as over 10. Moreover, the IC50 in [9] was over 0.1 µM.
With `CCCc1ccc(S(=O)(=O)Nc2ccc(F)c(C(=O)c3c[nH]c4ncnc(OCC)c34)c2F)cc1` [P-1038, N-[3-(4-Ethoxy-7H-pyrrolo[2,3-d]pyrimidine-5-carbonyl)-2,4-difluoro-phenyl]-4-propyl-benzenesulfonamide], the pIC50 in data set [1] is 5.00 to 5.30; in [3], under 5.00; in data set [5], 5.00 to 5.30; in data set [6], 5.00 to 5.30; in [7], under 5.00. Further, the results for the IC50 in [2], in data set [4] and in data set [9] were under 0.1 µM, over 0.1 µM and under 0.1 µM, respectively. Moreover, the “Biochemical activity ratio V600E/C” value in [4] is given as over 10. In addition, the “Biochemical activity ratio B/V600E” value in data set [8] is on record as 0.1-10. Moreover, the “Biochemical activity ratio B/C” value in data set [8] is given as over 10.
Take `O=C(c1c(F)ccc(NS(=O)(=O)c2ccc(C(F)(F)F)cc2)c1F)c1c[nH]c2nccc(NC3CCOCC3)c12` [P-2014, N-{2,4-Difluoro-3-[4-(tetrahydro-pyran-4-ylamino)-1H-pyrrolo[2,3-b]pyridine-3-carbonyl]-phenyl}-4-trifluoromethyl-benzenesulfonamide]: in [10], the “turbidity threshold (L, M, H) 1.4” value was “L (low solubility if the threshold concentration is <31.3 μM)”; the “turbidity threshold (L, M, H) 4.5” value is on record as “L (low solubility if the threshold concentration is <31.3 μM)”; the “turbidity threshold (L, M, H) 6.8” value is listed as “L (low solubility if the threshold concentration is <31.3 μM)”; the “turbidity threshold (L, M, H) 7.4” value is recorded as “L (low solubility if the threshold concentration is <31.3 μM)”. This compound also registered an IC50 in data set [2] of under 0.1 µM. In addition, in [4], the IC50 was over 0.1 µM and the “Biochemical activity ratio V600E/C” value was over 10. Moreover, in data set [8], the “Biochemical activity ratio B/V600E” value is reported as 0.1-10 and the “Biochemical activity ratio B/C” value is reported as 0.1-10. Also, the IC50 in data set [9] was over 0.1 µM.
For `O=C(c1c(F)ccc(NS(=O)(=O)c2ccc(C(F)(F)F)cc2)c1F)c1c[nH]c2nccc(C(F)(F)F)c12` [P-2016, N-[2,4-Difluoro-3-(4-trifluoromethyl-1H-pyrrolo[2,3-b]pyridine-3-carbonyl)-phenyl]-4-trifluoromethyl-benzenesulfonamide], in data set [10], the “turbidity threshold (L, M, H) 1.4” value is “L (low solubility if the threshold concentration is <31.3 μM)”; the “turbidity threshold (L, M, H) 4.5” value is “L (low solubility if the threshold concentration is <31.3 μM)”; the “turbidity threshold (L, M, H) 6.8” value was “L (low solubility if the threshold concentration is <31.3 μM)”; the “turbidity threshold (L, M, H) 7.4” value is listed as “M (moderate solubility if the threshold concentration is 31.3 μM to 250 μM)”. The same compound had an IC50 in [2] of under 0.1 µM. In data set [4], the IC50 is over 0.1 µM and the “Biochemical activity ratio V600E/C” value is on record as over 10. In addition, in [8], the “Biochemical activity ratio B/V600E” value is reported as 0.1-10 and the “Biochemical activity ratio B/C” value is listed as 0.1-10. This compound had an IC50 in data set [9] of over 0.1 µM.
In the case of `O=C(c1c(F)ccc(NS(=O)(=O)c2ccccc2)c1F)c1c[nH]c2nccc(C(F)(F)F)c12` [P-2017, N-[2,4-Difluoro-3-(4-trifluoromethyl-1H-pyrrolo[2,3-b]pyridine-3-carbonyl)-phenyl]-benzenesulfonamide], in data set [10], the “turbidity threshold (L, M, H) 1.4” value was “L (low solubility if the threshold concentration is <31.3 μM)”; the “turbidity threshold (L, M, H) 4.5” value is reported as “L (low solubility if the threshold concentration is <31.3 μM)”; the “turbidity threshold (L, M, H) 6.8” value is “L (low solubility if the threshold concentration is <31.3 μM)”; the “turbidity threshold (L, M, H) 7.4” value is on record as “M (moderate solubility if the threshold concentration is 31.3 μM to 250 μM)”. The compound also came in with an IC50 in data set [2] of under 0.1 µM. Also, in [4], the IC50 was over 0.1 µM and the “Biochemical activity ratio V600E/C” value is over 10. Also, in data set [8], the “Biochemical activity ratio B/V600E” value is on record as 0.1-10 and the “Biochemical activity ratio B/C” value is over 10. The IC50 in data set [9] was over 0.1 µM.
